Measurements taken from patent publication US20230278972A1, “SUBSTITUTED HALOALKYL SULFONANILIDE HERBICIDES” (FMC Corporation, priority 2020, published 2023).

What was measured:
Type in all cases: in vivo
corn (Zea mays) = assay: Test A postemergence, corn; conditions: Postemergence
Method in brief: (§1)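 After sowing into a sand-amended loam, pots for the preemergence test were treated by spraying directly onto soil. In parallel, seedlings at the one- to two-leaf stage and 2 to 10 cm tall were treated postemergence with the identical surfactant-containing formulation.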

[1] = test system: barnyardgrass (Echinochloa crus-galli); assay: Test A postemergence, barnyardgrass; conditions: Postemergence
Method in brief: (§2)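 Postemergence ratings come from foliar sprays onto one- to two-leaf plants of 2 to 10 cm grown in loam/sand; preemergence ratings come from a directed spray onto the soil of newly seeded pots. Formulation was a surfactant-containing non-phytotoxic solvent blend.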

[2] = test system: pigweed (Amaranthus retroflexus); assay: Test A postemergence, pigweed; conditions: Postemergence
Method in brief: as §1

[3] = test system: Foxtail, Giant (giant foxtail, Setaria faberi); assay: Test A postemergence, Foxtail, Giant; conditions: Postemergence
Method in brief: as §1

[4] = test system: blackgrass (Alopecurus myosuroides); assay: Test A postemergence, blackgrass; conditions: Postemergence
Method in brief: as §1

[5] = test system: ragweed (common ragweed, Ambrosia artemisiifolia); assay: Test A postemergence, ragweed; conditions: Postemergence
Method in brief: as §1

[6] = test system: pigweed (Amaranthus retroflexus); assay: Test A preemergence, pigweed; conditions: for Plant response rating, Pigweed: 0 to 100 scale (0 no effect, 100 complete control); for Pigweed plant response rating: visual injury on 0 to 100 scale (0 no effect, 100 complete control), approximately 10 days
Method in brief: as §2

kochia (Bassia scoparia) [7] = assay: Test A preemergence, kochia; conditions: Preemergence; for Plant response rating, Kochia: 0 to 100 scale (0 no effect, 100 complete control); for Kochia plant response rating: visual injury on 0 to 100 scale (0 no effect, 100 complete control), approximately 10 days
Method in brief: as §1

[8] = test system: Ryegrass, Italian (Italian ryegrass, Lolium multiflorum); assay: Test A preemergence, Ryegrass, Italian; conditions: Preemergence; for Plant response rating, Ryegrass, Italian: 0 to 100 scale (0 no effect, 100 complete control); for Ryegrass, Italian plant response rating: visual injury on 0 to 100 scale (0 no effect, 100 complete control), approximately 10 days
Method in brief: as §1

[9] = test system: Foxtail, Giant (giant foxtail, Setaria faberi); assay: Test A preemergence, Foxtail, Giant; conditions: Preemergence; for Plant response rating, Foxtail, Giant: 0 to 100 scale (0 no effect, 100 complete control); for Foxtail, Giant plant response rating: visual injury on 0 to 100 scale (0 no effect, 100 complete control), approximately 10 days
Method in brief: as §1

[10] = test system: ragweed (common ragweed, Ambrosia artemisiifolia); assay: Test A preemergence, ragweed; conditions: Preemergence; for Plant response rating, Ragweed: 0 to 100 scale (0 no effect, 100 complete control); for Ragweed plant response rating: visual injury on 0 to 100 scale (0 no effect, 100 complete control), approximately 10 days
Method in brief: as §1

[11] = test system: Ryegrass, Italian (Italian ryegrass, Lolium multiflorum); assay: Test A postemergence, Ryegrass, Italian; conditions: Postemergence
Method in brief: as §1

[12] = test system: wheat (Triticum aestivum); assay: Test A postemergence, wheat; conditions: Postemergence
Method in brief: as §2

[13] = test system: galium (catchweed bedstraw, Galium aparine); assay: Test A postemergence, galium; conditions: Postemergence
Method in brief: as §2

kochia (Bassia scoparia) [14] = assay: Test A postemergence, kochia; conditions: Postemergence
Method in brief: as §1

[15] = test system: barnyardgrass (Echinochloa crus-galli); assay: Test A preemergence, barnyardgrass; conditions: Preemergence; for Plant response rating, Barnyardgrass: 0 to 100 scale (0 no effect, 100 complete control); for Barnyardgrass plant response rating: visual injury on 0 to 100 scale (0 no effect, 100 complete control), approximately 10 days
Method in brief: as §1

[16] = 31 g ai/ha, visual injury on 0 to 100 scale (0 no effect, 100 complete control), approx. 10 days
[17] = 125 g ai/ha, 0 to 100 scale (0 no effect, 100 complete control)
[18] = 31 g ai/ha, visual injury, approx. 10 days
[19] = 500 g ai/ha, visual injury approx. 10 days, 0 to 100 scale (0 no effect, 100 complete control)
[20] = 125 g ai/ha, visual injury, approx. 10 days
[21] = 125 g ai/ha, visual injury approx. 10 days, 0 to 100 scale (0 no effect, 100 complete control)
[22] = 500 g ai/ha, visual injury vs untreated controls after approx. 10 days, 0 to 100 scale (0 no effect, 100 complete control)
[23] = 31 g ai/ha, 0 to 100 scale (0 no effect, 100 complete control)

Cc1c(C(=O)N2CCOCC2)cc(N(S(=O)(=O)C(F)(F)F)S(=O)(=O)C(F)(F)F)c(C)c1F [Compound 174]
Plant response rating, Corn (corn (Zea mays); [16]): 0 | Plant response rating, Corn (corn (Zea mays); [17]): 20 | Plant response rating, Barnyardgrass [1, 16]: 0 | Plant response rating, Barnyardgrass [1, 17]: 60 | Plant response rating, Pigweed [2, 16]: 70 | Plant response rating, Pigweed [2, 17]: 90 | Plant response rating, Foxtail, Giant [3, 16]: 0 | Plant response rating, Foxtail, Giant [3, 17]: 0 | Plant response rating, Blackgrass [4, 16]: 0 | Plant response rating, Blackgrass [4, 17]: 0 | Plant response rating, Ragweed [5, 16]: 70 | Plant response rating, Ragweed [5, 17]: 90 | Plant response rating, Pigweed [6, 18]: 90 | Pigweed plant response rating ([6]; 125 g ai/ha): 100 | Plant response rating, Kochia (kochia (Bassia scoparia) [7]; [18]): 40 | Kochia plant response rating (kochia (Bassia scoparia) [7]; 125 g ai/ha): 80 | Plant response rating, Ryegrass, Italian [8, 18]: 40 | Ryegrass, Italian plant response rating ([8]; 125 g ai/ha): 60 | Plant response rating, Foxtail, Giant [9, 18]: 30 | Foxtail, Giant plant response rating ([9]; 125 g ai/ha): 90 | Plant response rating, Ragweed [10, 18]: 30 | Ragweed plant response rating ([10]; 125 g ai/ha): 90 | Plant response rating, Ryegrass, Italian [11, 16]: 0 | Plant response rating, Ryegrass, Italian [11, 17]: 0 | Plant response rating, Wheat [12, 16]: 0 | Plant response rating, Wheat [12, 17]: 0 | Plant response rating, Galium [13, 16]: 50 | Plant response rating, Galium [13, 17]: 80 | Plant response rating, Kochia (kochia (Bassia scoparia) [14]; [16]): 10 | Plant response rating, Kochia (kochia (Bassia scoparia) [14]; [17]): 30 | Plant response rating, Barnyardgrass [15, 18]: 10 | Barnyardgrass plant response rating ([15]; 125 g ai/ha): 80

Cc1cc(F)c(C(=O)N2CCOCC2)cc1NS(=O)(=O)C(F)(F)F [Compound 240]
Plant response rating, Corn (corn (Zea mays); [17]): 20 | Plant response rating, Corn (corn (Zea mays); [19]): 10 | Plant response rating, Barnyardgrass [1, 17]: 40 | Plant response rating, Barnyardgrass [1, 19]: 70 | Plant response rating, Pigweed [2, 17]: 30 | Plant response rating, Pigweed [2, 19]: 50 | Plant response rating, Foxtail, Giant [3, 17]: 20 | Plant response rating, Foxtail, Giant [3, 19]: 60 | Plant response rating, Blackgrass [4, 17]: 0 | Plant response rating, Blackgrass [4, 19]: 10 | Plant response rating, Ragweed [5, 17]: 70 | Plant response rating, Ragweed [5, 19]: 90 | Plant response rating, Pigweed [6, 20]: 0 | Pigweed plant response rating ([6]; 500 g ai/ha): 80 | Plant response rating, Kochia (kochia (Bassia scoparia) [7]; [20]): 70 | Kochia plant response rating (kochia (Bassia scoparia) [7]; 500 g ai/ha): 90 | Plant response rating, Ryegrass, Italian [8, 20]: 40 | Ryegrass, Italian plant response rating ([8]; 500 g ai/ha): 70 | Plant response rating, Foxtail, Giant [9, 20]: 30 | Foxtail, Giant plant response rating ([9]; 500 g ai/ha): 80 | Plant response rating, Ragweed [10, 20]: 30 | Ragweed plant response rating ([10]; 500 g ai/ha): 50 | Plant response rating, Ryegrass, Italian [11, 17]: 30 | Plant response rating, Ryegrass, Italian [11, 19]: 60 | Plant response rating, Wheat [12, 17]: 0 | Plant response rating, Wheat [12, 19]: 30 | Plant response rating, Galium [13, 17]: 50 | Plant response rating, Galium [13, 19]: 70 | Plant response rating, Kochia (kochia (Bassia scoparia) [14]; [17]): 50 | Plant response rating, Kochia (kochia (Bassia scoparia) [14]; [19]): 80 | Plant response rating, Barnyardgrass [15, 20]: 0 | Barnyardgrass plant response rating ([15]; 500 g ai/ha): 50

Cc1cc(C)c(-c2cc(C(F)(F)F)nn(C)c2=O)cc1NS(=O)(=O)C(F)(F)F [Compound 71]
Plant response rating, Corn (corn (Zea mays); [21]): 0 | Corn plant response rating (corn (Zea mays); [22]): 30 | Plant response rating, Barnyardgrass [1, 21]: 0 | Barnyardgrass plant response rating [1, 22]: 80 | Plant response rating, Pigweed [2, 21]: 0 | Pigweed plant response rating [2, 22]: 60 | Plant response rating, Foxtail, Giant [3, 21]: 0 | Foxtail, Giant plant response rating [3, 22]: 90 | Plant response rating, Blackgrass [4, 21]: 0 | Blackgrass plant response rating [4, 22]: 70 | Plant response rating, Ragweed [5, 21]: 0 | Ragweed plant response rating [5, 22]: 0 | Pigweed plant response rating ([6]; 125 g ai/ha): 40 | Plant response rating, Pigweed ([6]; 500 g ai/ha): 60 | Kochia plant response rating (kochia (Bassia scoparia) [7]; 125 g ai/ha): 80 | Plant response rating, Kochia (kochia (Bassia scoparia) [7]; 500 g ai/ha): 40 | Ryegrass, Italian plant response rating ([8]; 125 g ai/ha): 70 | Plant response rating, Ryegrass, Italian ([8]; 500 g ai/ha): 100 | Foxtail, Giant plant response rating ([9]; 125 g ai/ha): 80 | Plant response rating, Foxtail, Giant ([9]; 500 g ai/ha): 100 | Ragweed plant response rating ([10]; 125 g ai/ha): 10 | Plant response rating, Ragweed ([10]; 500 g ai/ha): 60 | Plant response rating, Ryegrass, Italian [11, 21]: 70 | Ryegrass, Italian plant response rating [11, 22]: 80 | Plant response rating, Wheat [12, 21]: 40 | Wheat plant response rating [12, 22]: 70 | Plant response rating, Galium [13, 21]: 50 | Galium plant response rating [13, 22]: 80 | Plant response rating, Kochia (kochia (Bassia scoparia) [14]; [21]): 20 | Kochia plant response rating (kochia (Bassia scoparia) [14]; [22]): 40 | Barnyardgrass plant response rating ([15]; 125 g ai/ha): 0 | Plant response rating, Barnyardgrass ([15]; 500 g ai/ha): 100

Cc1cc(Cl)c(NS(=O)(=O)C(F)(F)F)cc1C(=O)N1CCOC(C)C1 (centres unmarked) [Compound 1]
Plant response rating, Corn (corn (Zea mays); [23]): 20 | Plant response rating, Corn (corn (Zea mays); [21]): 30 | Plant response rating, Barnyardgrass [1, 23]: 70 | Plant response rating, Barnyardgrass [1, 21]: 90 | Plant response rating, Pigweed [2, 23]: 50 | Plant response rating, Pigweed [2, 21]: 80 | Plant response rating, Foxtail, Giant [3, 23]: 20 | Plant response rating, Foxtail, Giant [3, 21]: 70 | Plant response rating, Blackgrass [4, 23]: 0 | Plant response rating, Blackgrass [4, 21]: 50 | Plant response rating, Ragweed [5, 23]: 80 | Plant response rating, Ragweed [5, 21]: 90 | Plant response rating, Pigweed [6, 18]: 70 | Pigweed plant response rating ([6]; 125 g ai/ha): 100 | Plant response rating, Kochia (kochia (Bassia scoparia) [7]; [18]): 40 | Kochia plant response rating (kochia (Bassia scoparia) [7]; 125 g ai/ha): 70 | Plant response rating, Ryegrass, Italian [8, 18]: 40 | Ryegrass, Italian plant response rating ([8]; 125 g ai/ha): 90 | Plant response rating, Foxtail, Giant [9, 18]: 20 | Foxtail, Giant plant response rating ([9]; 125 g ai/ha): 90 | Plant response rating, Ragweed [10, 18]: 30 | Ragweed plant response rating ([10]; 125 g ai/ha): 50 | Plant response rating, Ryegrass, Italian [11, 23]: 0 | Plant response rating, Ryegrass, Italian [11, 21]: 40 | Plant response rating, Wheat [12, 23]: 30 | Plant response rating, Wheat [12, 21]: 50 | Plant response rating, Galium [13, 23]: 90 | Plant response rating, Galium [13, 21]: 100 | Plant response rating, Kochia (kochia (Bassia scoparia) [14]; [23]): 20 | Plant response rating, Kochia (kochia (Bassia scoparia) [14]; [21]): 60 | Plant response rating, Barnyardgrass [15, 18]: 0 | Barnyardgrass plant response rating ([15]; 125 g ai/ha): 80
